Reference: paper PMC4216216 (Journal of Medicinal Chemistry, 2014)

What was measured:
[1] = system: HeLa cells; conditions: read-out: cytotoxic IC50 in HeLa cells; cited from earlier work
[2] = molecular target: T1, KDM4B (Homo sapiens, UniProt O94953)
T1 sequence (O94953 1-348): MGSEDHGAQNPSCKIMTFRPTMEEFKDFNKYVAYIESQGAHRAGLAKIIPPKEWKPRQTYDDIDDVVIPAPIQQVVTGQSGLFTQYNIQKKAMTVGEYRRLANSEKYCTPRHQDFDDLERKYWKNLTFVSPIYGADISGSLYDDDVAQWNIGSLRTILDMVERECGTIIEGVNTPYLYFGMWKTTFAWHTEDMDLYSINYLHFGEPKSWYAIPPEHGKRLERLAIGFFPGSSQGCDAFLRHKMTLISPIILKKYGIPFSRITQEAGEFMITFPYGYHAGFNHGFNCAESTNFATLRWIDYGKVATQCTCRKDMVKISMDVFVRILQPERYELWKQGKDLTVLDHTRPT

[3] = system: cultured cells; conditions: as a prodrug; cited from earlier work
[4] = molecular target: T2, KDM4A (Homo sapiens, UniProt O75164); experiment: Demethylation of calf thymus H3 by KDM4A, western blot; conditions: 10 μM enzyme, 100 μM inhibitor, 5 μM H3, 37 °C, 30 min
T2 sequence (O75164 1-347): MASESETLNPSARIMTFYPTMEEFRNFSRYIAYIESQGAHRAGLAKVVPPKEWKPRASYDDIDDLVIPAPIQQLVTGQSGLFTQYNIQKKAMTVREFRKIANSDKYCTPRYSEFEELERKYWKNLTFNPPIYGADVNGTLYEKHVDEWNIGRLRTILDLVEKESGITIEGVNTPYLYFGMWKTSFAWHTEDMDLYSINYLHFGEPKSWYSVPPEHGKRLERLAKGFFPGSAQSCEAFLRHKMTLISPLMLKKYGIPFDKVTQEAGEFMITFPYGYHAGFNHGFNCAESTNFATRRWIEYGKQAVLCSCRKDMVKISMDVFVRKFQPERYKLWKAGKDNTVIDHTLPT

[5] = molecular target: T2, KDM4A
[6] = molecular target: T1, KDM4B; conditions: 10 μM enzyme, 100 μM inhibitor, 5 μM H3, 37 °C, 30 min
[7] = system: LNCaP cells; conditions: 5–20 μM, over 6 days
[8] = system: H3K9me3 in LNCaP cells; experiment: Histone H3 methylation level in LNCaP cells, western blot; assay type: cell-based
[9] = system: PNT2 cells; experiment: PNT2 normal prostate cell growth; conditions: 5–20 μM, over 6 days
[10] = system: LNCaP cells; experiment: Microarray gene expression in LNCaP cells; assay type: cell-based; conditions: 50 μM, 3 days
[11] = system: RWPE1; experiment: RWPE1 normal prostate cell growth; conditions: 20 μM treatment

Structure (SMILES)	IC50 [1] [µM]	activity [2] [%]	cytotoxic IC50 in cultured cells [3]	demethylation of histone H3K9me3 and H3K36me3 by KDM4A [4]	activity [5] [%]	demethylation of histone H3K9me3 and H3K36me3 by KDM4B [6]	growth of LNCaP cells [7]	inhibitory mode against H3_3–17K9me3, KDM4A [5]	demethylating activity toward H3K9me3 in LNCaP cells ([8]; 5 μM, 24 h)	level of H3K9me3 in LNCaP cells ([8]; 10 µM, 3 days)	signals of H3K4me2, H3K27me3, H3K27me2, H3K36me3, H3K36me2 and H3K79me2 in LNCaP cells ([8]; 10 µM, 3 days, control vs treated)	cellular level of H3K9me3, dose-dependent ([8]; 1–100 μM, 24 h)	effect on PNT2 cells [9]	expression of oncogenes IGF1R, FGFR3, CCNE2, AURKA and AURKB [10]	expression of tumor suppressors RB1 and CDH1 [10]	growth of RWPE1 cells [11]
O=C(O)c1ccc(O)c2ncccc12 [5-carboxy-8HQ]	86.5	–	–	–	–	–	–	–	–	–	–	–	–	–	–	–
O=C(O)c1ccnc(C(=O)O)c1 [Compound 2, pyridine 2,4-dicarboxylic acid]	–	24	millimolar range	blocked the demethylation activity	21	blocked the demethylation activity	–	–	–	–	–	–	–	–	–	–
O=[N+]([O-])c1cc([N+](=O)[O-])c(/C=C/c2ccc(Cl)c(Cl)c2)cc1/C=C/c1ccc(Cl)c(Cl)c1 [Compound 4, 1,5-bis[(E)-2-(3,4-dichlorophenyl)ethenyl]-2,4-dinitrobenzene]	–	–	–	blocked the demethylation activity	–	–	significantly affected	competitive	almost completely blocked	significantly increased	essentially comparable signals	notable increase	hardly any effect	downregulation	upregulation	slightly reduced growth
